{"source": "patent US20060074073A1", "about": "“Therapeutic combinations comprising poly (ADP-ribose) polymerases inhibitor” (AGOURON PHARMACEUTICALS, INC., priority 2004, published 2006)", "key": {"LoVo xenografts [1]": {"tested_on": "LoVo xenografts", "test": "Ex-vivo clonogenic assay of irradiated LoVo xenografts", "type": "in vivo", "description": "24 h later tumors were excised, disaggregated to obtain single cell suspensions and plated for colony forming assay. […] The SF for the 15 mg/kg and 30 mg/kg IR combinations equated to that which would have been achieved using radiation doses of 8 Gy or 9.5 Gy, giving dose modification factors (DMF) of 1.6 and 1.9 respectively."}, "[2]": {"test": "IV pharmacokinetics in monkeys", "conditions": "cynomolgus monkey, in vivo"}, "PARP [3]": {"tested_on": "PARP", "test": "Inhibition of MNNG-induced cellular NAD depletion and poly-ADP-ribose polymer formation in A549 cells", "type": "cell-based", "conditions": "for NAD (% DMSO) / Polymer (% MNNG): MNNG 25 μM"}, "LoVo cells": {"tested_on": "LoVo cells", "test": "Inhibition of potentially lethal damage recovery, colony formation", "type": "cell-based", "conditions": "8 Gy + 0.4 μM compound", "excerpt": "A contributory factor to radiation resistance in vivo is the ability of quiescent cells to repair potentially lethal damage (PLD) (Weichselbaum, R. R. and Little, J. B. The differential response of human tumors to fractionated radiation may be due to a post-irradiation repair process. Br. J. Cancer 1982; 46: 532-537). In vitro models of PLD measure the increase in survival of irradiated, growth arrested cells following delayed plating for colony formation. Recovery from potentially lethal damage was measured in vitro using LoVo cells that had been arrested in G1 phase by growing to confluence to mimic the radio-resistant quiescent cell population in tumors. Cells were exposed to 8 Gy of γ-irradiation (Gammacel 1000 Elite, Nordian International Inc. Canada), and either harvested and plated for colony formation assay immediately or maintained as growth arrested confluent cultures for a 24-hour recovery period before harvesting and plating for the colony formation assay. Where indicated, 0.4 μM compound Formula 1 was added 30 minutes before irradiation and was present throughout the recovery incubation."}, "PARP [4]": {"tested_on": "PARP", "test": "PARP inhibition in tumor biopsies of patients", "type": "in vivo, human", "description": "Whole blood was collected into EDTA vacutainers and human PBLs were obtained by lymphopreparation according to the manufacturers instructions. Tumour biopsies were collected from the operating theatre in a sterile container and placed immediately on ice. Within 30 minutes tumour samples were snap frozen in liquid nitrogen and stored at −80° C. until homogenised for analysis. The specimen was defrosted on ice and the wet weight documented. For weights over 100 mg the tissue was homogenised using a Pro 2000 instrument (Pro Scientific Inc, Monroe, Conn., USA) in 3 volumes (i.e. 1 mg plus 3 μl isotonic buffer −7 mM Hepes, 26 mM KCl, 0.1 mM dextran, 0.4 mM EGTA, 0.5 mM MgCl2, 45 mM sucrose, pH 7.8), giving a homogenate with an overall dilution of 1 in 4. Where smaller samples had been obtained they were homogenised in 99 or 999 volumes, giving final dilutions of 1 in 100 and 1 in 1000, respectively. The homogenate was kept on ice throughout the process, and homogenisation was performed in 10 second bursts to prevent undue warming of the sample. Unless assayed on the day of homogenisation, samples were re-frozen to −80° C. and stored at this temperature until analysed. Prior to assay the samples were further diluted with isotonic buffer where necessary to give a final dilution of 1 in 1000.\nTumour homogenates were assayed in a similar manner; however, the homogenisation process introduces sufficient DNA damage to maximally stimulate PARP activity and oligonucleotide was not therefore required. The protein concentration of the homogenate was measured using the BCA protein assay and Titertek Multiscan MCC/340 plate reader. Results can be expressed in terms of pmol PAR former per mg protein or per mg tumour.\nA pharmacodynamic assay for PARP activity and inhibition uses monoclonal antibodies to measure the amount of PAR polymer that is formed under set conditions in permeabilized peripheral blood lymphocytes and homogenized tumor samples. The quantity of polymer formed can be used as a correlate for PARP activity, whereby decreasing polymer formation correlates with degree of PARP inhibition. PARP activity is expressed as a percentage of baseline, and is calculated by dividing the amount of PAR polymer formed after infusion by the quantity formed before infusion. The feasibility of this assay was successfully tested in the 12 patients Phase 2 study of single-agent temozolomide in patients with metastatic melanoma.\nUsing a pharmacodynamic assay for PARP activity disclosed in Section C above, PARP inhibition in peripheral blood lymphocytes and tumor tissue was assessed in a Phase 1 clinical trial. As indicated above, enrollment in the Phase 1 Part 2 study has been restricted to patients having metastatic melanoma with biopsiable disease. All patients have been required to consent to pre-treatment and post-treatment biopsies such that PARP activity in the tumor can be evaluated."}, "SW620 xenograft": {"tested_on": "SW620 xenograft", "test": "In vivo antitumor efficacy with irinotecan, SW620 xenograft", "parameters": "species or system mice", "conditions": "SW620, once weekly × 3", "excerpt": "(§1) In no combination study was antagonism observed."}, "LoVo xenografts [5]": {"tested_on": "LoVo xenografts", "test": "In vivo antitumor efficacy with temozolomide, LoVo xenograft", "excerpt": "as §1"}, "[6]": {"conditions": "15 mg/kg single IV dose as glucuronate salt"}}, "note": "Several values for one entry are separate records, joined by “and”; a condition that tells them apart may be missing. Identical values can stand only once. Marks after values point to notes of the source that are not given here."}
{"smiles": "CNCc1ccc(-c2[nH]c3cc(F)cc4c3c2CCNC4=O)cc1", "note": "[compound of formula 1, 8-fluoro-2-{4-[(methylamino)methyl]phenyl}-1,3,4,5-tetrahydro-6H-azepino[5,4,3-cd]indol-6-one]", "values": [{"measurement": "DMF, dose modification factor", "setting": "LoVo xenografts [1]; 15 mg/kg + 5 Gy", "result": 1.6}, {"measurement": "SF, surviving fraction", "setting": "LoVo xenografts [1]; 15 mg/kg + 5 Gy", "result": 0.06}, {"measurement": "radiation dose that would give the same SF", "setting": "LoVo xenografts [1]; 15 mg/kg + 5 Gy", "result": 8, "unit": "Gy"}, {"measurement": "DMF, dose modification factor", "setting": "LoVo xenografts [1]; 30 mg/kg + 5 Gy", "result": 1.9}, {"measurement": "SF, surviving fraction", "setting": "LoVo xenografts [1]; 30 mg/kg + 5 Gy", "result": 0.03}, {"measurement": "radiation dose that would give the same SF", "setting": "LoVo xenografts [1]; 30 mg/kg + 5 Gy", "result": 9.5, "unit": "Gy"}, {"measurement": "AUC(0-inf)", "setting": "[2]; 15 mg/kg single IV dose (free base) as glucuronate salt", "result": "7400 ± 700", "unit": "ng·h/mL"}, {"measurement": "clearance", "setting": "[2]; [6]", "result": "33.8 ± 3.1", "unit": "mL/min/kg"}, {"measurement": "half-life", "setting": "[2]; [6]", "result": "5.2 ± 0.8", "unit": "h"}, {"measurement": "Vd", "setting": "[2]; 15 mg/kg single IV dose as glucuronate salt, read-out: Vss", "result": "7.2 ± 1.2", "unit": "L/kg"}, {"measurement": "inhibition of MNNG-induced NAD depletion", "setting": "PARP [3]; 50 nM", "result": 93, "unit": "%"}, {"measurement": "inhibition of poly-ADP-ribose polymer formation", "setting": "PARP [3]; 50 nM", "result": 95, "unit": "%"}, {"measurement": "NAD (% DMSO)", "setting": "PARP [3]; compound 0.0005 μM", "result": 77, "unit": "% DMSO"}, {"measurement": "Polymer (% MNNG)", "setting": "PARP [3]; compound 0.0005 μM", "result": 40, "unit": "% MNNG"}, {"measurement": "NAD (% DMSO)", "setting": "PARP [3]; compound 0.005 μM", "result": 95, "unit": "% DMSO"}, {"measurement": "Polymer (% MNNG)", "setting": "PARP [3]; compound 0.005 μM", "result": 11, "unit": "% MNNG"}, {"measurement": "NAD (% DMSO)", "setting": "PARP [3]; compound 0.05 μM", "result": 96, "unit": "% DMSO"}, {"measurement": "Polymer (% MNNG)", "setting": "PARP [3]; compound 0.05 μM", "result": 5, "unit": "% MNNG"}, {"measurement": "NAD (% DMSO)", "setting": "PARP [3]; compound 0.1 μM", "result": 97, "unit": "% DMSO"}, {"measurement": "Polymer (% MNNG)", "setting": "PARP [3]; compound 0.1 μM", "result": 4, "unit": "% MNNG"}, {"measurement": "NAD (% DMSO)", "setting": "PARP [3]; compound 0.4 μM", "result": 97, "unit": "% DMSO"}, {"measurement": "Polymer (% MNNG)", "setting": "PARP [3]; compound 0.4 μM", "result": 4, "unit": "% MNNG"}, {"measurement": "inhibition of cellular poly-ADP-ribose formation", "setting": "PARP [3]; MNNG-induced, 5 nM", "result": 89, "unit": "%"}, {"measurement": "% PLDR", "setting": "LoVo cells; 100 × (survival at 24 hr-survival at 0 time)/survival at 0 time", "result": "211 ± 184", "unit": "%"}, {"measurement": "Survival at 0 time", "setting": "LoVo cells; G1-arrested", "result": "0.02 ± 0.01"}, {"measurement": "Survival at 24 hr", "setting": "LoVo cells; G1-arrested", "result": "0.057 ± 0.038"}, {"measurement": "inhibition at 0.4 µM", "setting": "LoVo cells; Homo sapiens, mean of 3 independent experiments, read-out: Inhibition of PLDR", "result": 64.9, "unit": "%"}]}
{"smiles": "CNCc1ccc(-c2[nH]c3cc(F)cc4c3c2CCNC4=O)cc1.O=P(O)(O)O", "note": "[Compound I, phosphate salt of 8-fluoro-2-{4-[(methylamino)methyl]phenyl}-1,3,4,5-tetrahydro-6H-azepino[5,4,3-cd]indol-6-one]", "values": [{"measurement": "% PARP Inhibition", "setting": "PARP [4]; tumor biopsy 4-6 h, temozolomide 135 mg/m^2, Compound I 12 mg/m^2, day 1, individual patients", "result": 91, "unit": "%"}, {"measurement": "% PARP Inhibition", "setting": "PARP [4]; tumor biopsy 4-6 h, temozolomide 135 mg/m^2, Compound I 12 mg/m^2, day 4, individual patients", "result": "85% and 50%"}, {"measurement": "% PARP Inhibition", "setting": "PARP [4]; tumor biopsy 4-6 h, temozolomide 170 mg/m^2, Compound I 12 mg/m^2, day 1, individual patients", "result": "77% and 98%"}, {"measurement": "% PARP Inhibition", "setting": "PARP [4]; tumor biopsy 4-6 h, temozolomide 170 mg/m^2, Compound I 12 mg/m^2, day 5, individual patients", "result": 93, "unit": "%"}, {"measurement": "% PARP Inhibition", "setting": "PARP [4]; tumor biopsy 4-6 h, temozolomide 200 mg/m^2, Compound I 12 mg/m^2, day 1, individual patients", "result": "90% and 88%"}, {"measurement": "% PARP Inhibition", "setting": "PARP [4]; tumor biopsy 4-6 h, temozolomide 200 mg/m^2, Compound I 18 mg/m^2, day 1, individual patients", "result": "98% and 94% and 89% and 97%"}, {"measurement": "% PARP Inhibition", "setting": "PARP [4]; tumor biopsy 4-6 h post-treatment, temozolomide 100 mg/m^2, Compound I 4 mg/m^2, day 1, individual patients", "result": 79, "unit": "%"}, {"measurement": "% PARP Inhibition", "setting": "PARP [4]; tumor biopsy at 24 hours post-treatment on day 1, temozolomide 200 mg/m^2, Compound I 18 mg/m^2", "result": 86, "unit": "%*"}]}
{"smiles": "CNCc1ccc(-c2[nH]c3cc(F)cc4c3c2CCNC4=O)cc1.O=C[C@H](O)[C@@H](O)[C@H](O)[C@H](O)C(=O)O", "note": "[compound of formula 1 glucuronate salt]", "values": [{"measurement": "Enhancement (%)", "setting": "SW620 xenograft; irinotecan 25 mg/kg i.p. + 0.05 mg/kg i.p. (glucuronate salt)", "result": 700, "unit": "%"}, {"measurement": "Enhancement (%)", "setting": "SW620 xenograft; irinotecan 25 mg/kg i.p. + 0.15 mg/kg i.p. (glucuronate salt)", "result": "1100^f %"}, {"measurement": "Enhancement (%)", "setting": "SW620 xenograft; irinotecan 25 mg/kg i.p. + 0.5 mg/kg i.p. (glucuronate salt)", "result": "1100^f %"}, {"measurement": "body weight loss", "setting": "LoVo xenografts [5]; LoVo experiment, any dose group", "result": "No body weight loss"}, {"measurement": "Enhancement (%)", "setting": "LoVo xenografts [5]; LoVo, temozolomide 68 mg/kg oral + 0.5 mg/kg i.p. (glucuronate salt), once daily for 5 days", "result": "67% and 67^f %"}]}
